We go through 50 compounds from patent US20150284375A1 (AJINOMOTO CO., INC., priority 2012, published 2015).

The target of this test is T1, human TRPA1 (Homo sapiens, UniProt O75762).
T1 construct: expressed in transfected cells; host or cells: Human embryonic kidney-derived 293T cells, transiently transfected with the pcDNA3.1/zeo(+) human TRPA1 plasmid
T1 sequence (O75762 whole entry): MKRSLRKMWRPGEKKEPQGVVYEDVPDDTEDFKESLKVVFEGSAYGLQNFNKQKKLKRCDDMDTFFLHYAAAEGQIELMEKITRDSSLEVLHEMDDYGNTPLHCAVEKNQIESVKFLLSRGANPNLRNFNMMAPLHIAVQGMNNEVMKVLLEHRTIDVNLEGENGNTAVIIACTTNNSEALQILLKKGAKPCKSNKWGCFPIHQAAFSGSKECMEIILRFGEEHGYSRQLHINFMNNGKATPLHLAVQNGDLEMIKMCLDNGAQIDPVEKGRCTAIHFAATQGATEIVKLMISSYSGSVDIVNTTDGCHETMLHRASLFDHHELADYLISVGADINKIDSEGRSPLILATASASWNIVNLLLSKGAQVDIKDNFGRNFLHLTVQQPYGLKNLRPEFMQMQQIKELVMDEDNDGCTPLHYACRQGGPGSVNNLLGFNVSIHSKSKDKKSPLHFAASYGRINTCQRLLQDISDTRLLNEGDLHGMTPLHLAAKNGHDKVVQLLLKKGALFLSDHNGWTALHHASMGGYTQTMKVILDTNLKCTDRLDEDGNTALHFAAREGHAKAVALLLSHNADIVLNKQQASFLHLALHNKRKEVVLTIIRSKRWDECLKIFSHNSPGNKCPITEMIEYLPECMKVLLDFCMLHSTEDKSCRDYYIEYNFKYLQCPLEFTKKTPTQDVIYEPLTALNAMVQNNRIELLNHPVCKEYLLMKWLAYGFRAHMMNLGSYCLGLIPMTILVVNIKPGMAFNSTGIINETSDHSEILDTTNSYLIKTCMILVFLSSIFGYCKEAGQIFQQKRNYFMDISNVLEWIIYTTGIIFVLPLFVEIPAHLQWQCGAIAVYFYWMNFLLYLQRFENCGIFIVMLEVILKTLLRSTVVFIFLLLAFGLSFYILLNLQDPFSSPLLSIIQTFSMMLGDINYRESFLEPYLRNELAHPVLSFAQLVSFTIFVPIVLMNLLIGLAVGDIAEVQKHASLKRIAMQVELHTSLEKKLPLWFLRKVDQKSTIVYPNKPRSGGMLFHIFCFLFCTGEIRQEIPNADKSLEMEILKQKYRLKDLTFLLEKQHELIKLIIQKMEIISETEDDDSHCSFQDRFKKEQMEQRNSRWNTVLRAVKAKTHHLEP
Nature of the test: Measurement of TRPA1 antagonist activity (intracellular calcium increase, FLIPR, allylisothiocyanate stimulation). In kind it is cell-based. The note with it: 293T cells transfected with human TRPA1; allylisothiocyanate 20 μM; concentration for 50% inhibitory rate; read-out: antagonism hTRPA1. In a few lines:
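IC50 derives from a sigmoid fit of inhibition of the 5-min FLIPR fluorescence change evoked by 20 μM allylisothiocyanate, normalized between agonist and buffer responses. Test substance, diluted in HBSS/20 mM HEPES pH 7.2 plus 0.1% BSA, was applied 10 min beforehand at room temperature to Calcium4-loaded 293T cells transiently expressing human TRPA1.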
On the technique in general: A change in cytosolic calcium serves as a functional read-out for many receptors and channels.
Turning to `CN(C)c1cccc(OCc2ccc(CNC(=O)[C@@H]3CCCN3S(=O)(=O)c3ccc(Cl)s3)cc2)c1` [Example 59, (2S)-1-(5-chlorothiophene-2-sulfonyl)-N-((4-{[3-(dimethyl-amino)phenoxy]methyl}phenyl)methyl)pyrrolidine-2-carboxamide], the IC50 was determined as 838 nM.

For `O=C(NCc1ccc(COc2ccccc2C(F)(F)F)cc1)[C@@H]1CCCN1S(=O)(=O)c1ccc(Cl)s1` [Example 60, (2S)-1-(5-chlorothiophene-2-sulfonyl)-N-((4-{[2-(trifluoro-methyl)phenoxy]methyl}phenyl)methyl)pyrrolidine-2-carboxamide], the IC50 came out at 420 nM.

As for `Cc1ccccc1OCc1ccc(CNC(=O)[C@@H]2CCCN2S(=O)(=O)c2ccc(Cl)s2)cc1` [Example 61, (2S)-1-(5-chlorothiophene-2-sulfonyl)-N-({4-[(2-methyl-phenoxy)methyl]phenyl}methyl)pyrrolidine-2-carboxamide], the IC50 worked out at 190 nM.

Regarding `COc1ccccc1OCc1ccc(CNC(=O)[C@@H]2CCCN2S(=O)(=O)c2ccc(Cl)s2)cc1` [Example 62, (2S)-1-(5-chlorothiophene-2-sulfonyl)-N-({4-[(2-methoxy-phenoxy)methyl]phenyl}methyl)pyrrolidine-2-carboxamide], the IC50 came out at 1100 nM.

For the compound `O=C(NCc1ccc(COc2ccccc2F)cc1)[C@@H]1CCCN1S(=O)(=O)c1ccc(Cl)s1` [Example 63, (2S)-1-(5-chlorothiophene-2-sulfonyl)-N-({4-[(2-fluoro-phenoxy)methyl]phenyl}methyl)pyrrolidine-2-carboxamide], the IC50 came out at 440 nM.

With `O=C(NCc1ccc(COc2ccccc2Cl)cc1)[C@@H]1CCCN1S(=O)(=O)c1ccc(Cl)s1` [Example 64, (2S)-N-({4-[(2-chlorophenoxy)methyl]phenyl}methyl)-1-(5-chlorothiophene-2-sulfonyl)pyrrolidine-2-carboxamide], the IC50 was determined as 480 nM.

Consider `O=C(NCc1ccc(COc2c(F)cccc2F)cc1)[C@@H]1CCCN1S(=O)(=O)c1ccc(Cl)s1` [Example 65, (2S)-1-(5-chlorothiophene-2-sulfonyl)-N-({4-[(2,6-difluoro-phenoxy)methyl]phenyl}methyl)pyrrolidine-2-carboxamide], for which the IC50 came out at 130 nM.

As to `COC(=O)c1ccccc1OCc1ccc(CNC(=O)[C@@H]2CCCN2S(=O)(=O)c2ccc(Cl)s2)cc1` [Example 66, methyl 2-((4-({[(2S)-1-(5-chlorothiophene-2-sulfonyl)pyrrolidine-2-carbonyl]amino}methyl)phenyl)methoxy)benzoate], the IC50 amounted to 780 nM.

For `O=C(NCc1ccc(COc2cncc(Cl)c2)cc1)[C@@H]1CCCN1S(=O)(=O)c1ccc(Cl)s1` [Example 67, (2S)-N-({4-[(5-chloro-3-pyridyl)oxymethyl]phenyl}methyl)-1-(5-chlorothiophene-2-sulfonyl)pyrrolidine-2-carboxamide], the IC50 was 730 nM.

Regarding `O=C(NCc1ccc(COc2ccc3ncccc3c2)cc1)[C@@H]1CCCN1S(=O)(=O)c1ccc(Cl)s1` [Example 68, (2S)-1-(5-chlorothiophene-2-sulfonyl)-N-{[4-(6-quinolyloxy-methyl)phenyl]methyl}pyrrolidine-2-carboxamide], the IC50 worked out at 4400 nM.

`O=C(NCc1ccc(COc2cc3ccccc3cn2)cc1)[C@@H]1CCCN1S(=O)(=O)c1ccc(Cl)s1` [Example 69]: the IC50 is 1800 nM.

Turning to `O=C(NCc1cccc(COc2ccccc2)c1)[C@@H]1CCCN1S(=O)(=O)c1ccc(Cl)s1` [Example 70], the IC50 worked out at 340 nM.

In the case of `O=C(NCc1cccc(COc2ccc(C(F)(F)F)cc2)c1)[C@@H]1CCCN1S(=O)(=O)c1ccc(Cl)s1` [Example 71], the IC50 is 270 nM.

With `CC(NC(=O)[C@@H]1CCCN1S(=O)(=O)c1ccc(Cl)s1)c1ccc(COc2ccccc2)cc1` (some centres unmarked) [Example 72], the IC50 is 3800 nM.

For `O=C(NCc1ccc(COc2ccccc2)cc1Cl)[C@@H]1CCCN1S(=O)(=O)c1ccc(Cl)s1` [Example 73], the IC50 was determined as 150 nM.

For the compound `O=C(NCc1ccc(COc2ccc(C(F)(F)F)cc2)cc1Cl)[C@@H]1CCCN1S(=O)(=O)c1ccc(Cl)s1` [Example 74], the IC50 was found to be 180 nM.

In the case of `O=C(NCc1ccc(COc2cccc(C(F)(F)F)c2)cc1Cl)[C@@H]1CCCN1S(=O)(=O)c1ccc(Cl)s1` [Example 75], the IC50 was determined as 140 nM.

Regarding `O=C(NCc1ccc(COc2ccccc2)cc1C(F)(F)F)[C@@H]1CCCN1S(=O)(=O)c1ccc(Cl)s1` [Example 76], the IC50 stood at 160 nM.

As for `O=C(NCc1ccc(COc2ccc(C(F)(F)F)cc2)cc1C(F)(F)F)[C@@H]1CCCN1S(=O)(=O)c1ccc(Cl)s1` [Example 77], the IC50 came out at 100 nM.

In the case of `O=C(NCc1ccc(COc2cccc(C(F)(F)F)c2)cc1C(F)(F)F)[C@@H]1CCCN1S(=O)(=O)c1ccc(Cl)s1` [Example 78], the IC50 stood at 120 nM.

With `O=C(NCc1ccccc1COc1ccccc1)[C@@H]1CCCN1S(=O)(=O)c1ccc(Cl)s1` [Example 79], the IC50 worked out at 2200 nM.

On to `O=C(NCc1ccccc1COc1ccc(C(F)(F)F)cc1)[C@@H]1CCCN1S(=O)(=O)c1ccc(Cl)s1` [Example 80], for which the IC50 was found to be 270 nM.

As for `O=C(NCc1ccccc1COc1cccc(C(F)(F)F)c1)[C@@H]1CCCN1S(=O)(=O)c1ccc(Cl)s1` [Example 81], the IC50 is 580 nM.

For the compound `O=C(NCc1ccc(COc2ccccc2)cc1)[C@@H]1CCCN1S(=O)(=O)c1ccc(F)cc1` [Example 82, (2S)-1-[(4-fluorophenyl)sulfonyl]-N-{[4-(phenoxymethyl)phenyl]methyl}pyrrolidine-2-carboxamide], the IC50 is 1200 nM.

`O=C(NCc1ccc(COc2ccccc2)cc1)[C@@H]1C=CCN1S(=O)(=O)c1ccc(Cl)s1` [Example 83]: the IC50 turned out to be 430 nM.

As to `O=C(NCc1ccc(COc2ccccc2)cc1)[C@@H]1CCCN1S(=O)(=O)c1ccc(F)c(F)c1` [Example 84], the IC50 was 1100 nM.

With `O=C(NCc1ccc(COc2ccccc2)cc1)[C@@H]1CCCN1S(=O)(=O)c1cccc(F)c1` [Example 85], the IC50 was found to be 3500 nM.

In the case of `O=C(NCc1ccc(COc2ccccc2)cc1)[C@@H]1CCCN1S(=O)(=O)c1cccs1` [Example 86], the IC50 stood at 7000 nM.

`O=C(NCc1ccc(COc2ccccc2)cc1)[C@@H]1CC(O)CN1S(=O)(=O)c1ccc(Cl)s1` (some centres unmarked) [Example 87]: the IC50 is 7700 nM.

In the case of `O=C(NCc1nc(COc2ccc(C(F)(F)F)cc2)cs1)[C@@H]1CCCN1S(=O)(=O)c1ccc(Cl)s1` [Example 88], the IC50 was found to be 370 nM.

In the case of `O=C(NCc1nc(COc2cccc(C(F)(F)F)c2)cs1)[C@@H]1CCCN1S(=O)(=O)c1ccc(Cl)s1` [Example 89], the IC50 came out at 340 nM.

As for `O=C(NCc1nc(COc2ccccc2C(F)(F)F)cs1)[C@@H]1CCCN1S(=O)(=O)c1ccc(Cl)s1` [Example 90], the IC50 came to 150 nM.

In the case of `O=C(NCc1ccc(OCc2ccccc2)cc1)[C@@H]1CCCN1S(=O)(=O)c1ccc(Cl)s1` [Example 91], the IC50 came to 94 nM.

Regarding `O=C(NCc1ccc(OCc2ccc(C(F)(F)F)cc2)cc1)[C@@H]1CCCN1S(=O)(=O)c1ccc(Cl)s1` [Example 92], the IC50 worked out at 110 nM.

Regarding `O=C(NCc1ccc(OCc2cccc(C(F)(F)F)c2)cc1)[C@@H]1CCCN1S(=O)(=O)c1ccc(Cl)s1` [Example 93], the IC50 worked out at 4200 nM.

`O=C(NCc1ccc(OCc2ccccc2C(F)(F)F)cc1)[C@@H]1CCCN1S(=O)(=O)c1ccc(Cl)s1` [Example 94]: the IC50 was 370 nM.

As for `O=C(NCc1cccc(OCc2ccccc2)c1)[C@@H]1CCCN1S(=O)(=O)c1ccc(Cl)s1` [Example 95], the IC50 turned out to be 22 nM.

As to `O=C(NCc1cccc(OCc2ccc(C(F)(F)F)cc2)c1)[C@@H]1CCCN1S(=O)(=O)c1ccc(Cl)s1` [Example 96], the IC50 stood at 19 nM.

Regarding `O=C(NCc1cccc(OCc2ccc(OC(F)(F)F)cc2)c1)[C@@H]1CCCN1S(=O)(=O)c1ccc(Cl)s1` [Example 97], the IC50 is 30 nM.

Consider `O=C(NCc1cccc(OCc2ccc(Cl)cc2)c1)[C@@H]1CCCN1S(=O)(=O)c1ccc(Cl)s1` [Example 98], for which the IC50 is 10 nM.

Turning to `O=C(NCc1cccc(OCc2ccc(F)cc2)c1)[C@@H]1CCCN1S(=O)(=O)c1ccc(Cl)s1` [Example 99], the IC50 was found to be 12 nM.

For `O=C(NCc1cccc(OCc2cccc(C(F)(F)F)c2)c1)[C@@H]1CCCN1S(=O)(=O)c1ccc(Cl)s1` [Example 100], the IC50 came out at 8.9 nM.

`O=C(NCc1cccc(OCc2cccc(OC(F)(F)F)c2)c1)[C@@H]1CCCN1S(=O)(=O)c1ccc(Cl)s1` [Example 101]: the IC50 was 16 nM.

Take `O=C(NCc1cccc(OCc2cccc(Cl)c2)c1)[C@@H]1CCCN1S(=O)(=O)c1ccc(Cl)s1` [Example 102]: the IC50 amounted to 15 nM.

As to `O=C(NCc1cccc(OCc2cccc(F)c2)c1)[C@@H]1CCCN1S(=O)(=O)c1ccc(Cl)s1` [Example 103], the IC50 worked out at 15 nM.

On to `O=C(NCc1cccc(OCc2ccccc2C(F)(F)F)c1)[C@@H]1CCCN1S(=O)(=O)c1ccc(Cl)s1` [Example 104], for which the IC50 was found to be 80 nM.

`O=C(NCc1ccc(F)c(OCc2ccc(C(F)(F)F)cc2)c1F)[C@@H]1CCCN1S(=O)(=O)c1ccc(Cl)s1` [Example 105]: the IC50 amounted to 130 nM.

Consider `O=C(NCc1c(F)ccc(OCc2ccc(C(F)(F)F)cc2)c1Cl)[C@@H]1CCCN1S(=O)(=O)c1ccc(Cl)s1` [Example 106], for which the IC50 came out at 1200 nM.

`O=C(NCc1cccc(OCc2ccccc2)c1)[C@@H]1C=CCN1S(=O)(=O)c1ccc(Cl)s1` [Example 107, (2S)—N-[(3-benzyloxyphenyl)methyl]-1-(5-chlorothiophene-2-sulfonyl)-2,5-dihydropyrrole-2-carboxamide]: the IC50 was 14 nM.

In the case of `O=C(NCc1cccc(OCc2ccccc2)c1)[C@@H]1CCCN1S(=O)(=O)c1ccc(F)cc1` [Example 108], the IC50 came to 66 nM.
